According to US8859549B2, “Potassium channel modulators” (AbbVie, Inc., priority 2011, dated 2014):

Biological target: T1, KCNQ 2/3 channels (Homo sapiens, UniProt O43525+O43526)
T1 construct: expressed in transfected cells; host or cells: HEK293
Assay: KCNQ 2/3 channel activation, thallium flux FLIPR assay (BTC-AM dye)
Assay type: cell-based
Conditions: for Emax: HEK293, maximum response relative to the response of 10 μM retigabine (set at 100%), HEK293 KCNQ2/KCNQ3 cells, read-out: % MAX; for EC50: HEK293 cells stably expressing human KCNQ2 and KCNQ3 subunits, thallium-induced fluorescence, 4 min compound incubation
In short: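 HEK293 cells stably expressing human KCNQ2/KCNQ3 were loaded with BTC-AM (3 μg/mL, 2 h, RT) and preincubated with compound for 4 min in pH 7.3 gluconate buffer containing 0.1 mM ouabain. Flux was triggered by 6 mM TlNO3/10 mM K2SO4 and read for 3 min; EC50 came from summed responses over basal, with maximum relative to 10 μM retigabine (100%).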

Structure (SMILES)	Emax [%]	EC50 [µM]
O=C(CC1CCCO1)Nn1nc(-c2ccnc(Cl)c2)c2ccccc2c1=O (centres unmarked) [Example 73, N-[4-(2-chloropyridin-4-yl)-1-oxophthalazin-2(1H)-yl]-2-(tetrahydrofuran-2-yl)acetamide]	172	8.07
O=C(Cc1ccc(Cl)cc1)Nn1nc(-c2ccnc(C(F)(F)F)c2)c2ccccc2c1=O [Example 77, 2-(4-chlorophenyl)-N-{1-oxo-4-[2-(trifluoromethyl)pyridin-4-yl]phthalazin-2(1H)-yl}acetamide]	74.9	0.458
Cc1ccc(S(=O)(=O)NCc2nn(NC(=O)Cc3ccc(Cl)cc3)c(=O)c3ccccc23)cc1 [Example 78, 2-(4-chlorophenyl)-N-[4-({[(4-methylphenyl)sulfonyl]amino}methyl)-1-oxophthalazin-2(1H)-yl]acetamide]	44.1	9.49
O=C(Cc1ccc(Cl)cc1)Nn1nc(CNS(=O)(=O)C(F)(F)F)c2ccccc2c1=O [Example 79, 2-(4-chlorophenyl)-N-[1-oxo-4-({[(trifluoromethyl)sulfonyl]amino}methyl)phthalazin-2(1H)-yl]acetamide]	33.6	9.08
CS(=O)(=O)NCc1nn(NC(=O)Cc2ccc(Cl)cc2)c(=O)c2ccccc12 [Example 80, 2-(4-chlorophenyl)-N-[4-{[(methylsulfonyl)amino]methyl}-1-oxophthalazin-2(1H)-yl]acetamide]	26.5	–
O=C(Cc1ccc(Cl)cc1)Nn1nc([S+]([O-])c2ccccc2)c2ccccc2c1=O (centres unmarked) [Example 82, 2-(4-chlorophenyl)-N-[1-oxo-4-(phenylsulfinyl)phthalazin-2(1H)-yl]acetamide]	119	0.872
O=C(Cc1cc(F)cc(F)c1)Nn1nc([S+]([O-])c2ccccc2)c2ccccc2c1=O (centres unmarked) [Example 83, 2-(3,5-difluorophenyl)-N-[1-oxo-4-(phenylsulfinyl)phthalazin-2(1H)-yl]acetamide]	105	1.1
CC(C)(C)NC(=O)NCc1nn(NC(=O)Cc2ccc(Cl)cc2)c(=O)c2ccccc12 [Example 84, N-[4-{[(tert-butylcarbamoyl)amino]methyl}-1-oxophthalazin-2(1H)-yl]-2-(4-chlorophenyl)acetamide]	40.8	–
CCOC(=O)NCc1nn(NC(=O)Cc2ccc(Cl)cc2)c(=O)c2ccccc12 [Example 85, ethyl[(3-{[(4-chlorophenyl)acetyl]amino}-4-oxo-3,4-dihydrophthalazin-1-yl)methyl]carbamate]	87.3	5.35
O=C(Cc1ccccc1)NCc1nn(NC(=O)Cc2ccc(Cl)cc2)c(=O)c2ccccc12 [Example 86, 2-(4-chlorophenyl)-N-[1-oxo-4-{[(phenylacetyl)amino]methyl}phthalazin-2(1H)-yl]acetamide]	15.7	–
CC(C)(C)C(=O)NCc1nn(NC(=O)Cc2ccc(Cl)cc2)c(=O)c2ccccc12 [Example 87, N-[(3-{[(4-chlorophenyl)acetyl]amino}-4-oxo-3,4-dihydrophthalazin-1-yl)methyl]-2,2-dimethylpropanamide]	89.1	10.1
C[C@@H]1CN(c2nn(NC(=O)Cc3cc(F)cc(F)c3)c(=O)c3ccccc23)C[C@H](C)O1 [Example 88, 2-(3,5-difluorophenyl)-N-{4-[(cis)-2,6-dimethylmorpholin-4-yl]-1-oxophthalazin-2(1H)-yl}acetamide]	107	0.998
C[C@@H]1CN(c2nn(NC(=O)CC(C)(C)c3ccccc3)c(=O)c3ccccc23)C[C@H](C)O1 [Example 89, N-{4-[(cis)-2,6-dimethylmorpholin-4-yl]-1-oxophthalazin-2(1H)-yl}-3-methyl-3-phenylbutanamide]	183	0.35
O=C(Cc1ccc(Cl)cc1)Nn1nc(N2CCSCC2)c2ccccc2c1=O [Example 91, 2-(4-chlorophenyl)-N-[1-oxo-4-(thiomorpholin-4-yl)phthalazin-2(1H)-yl]acetamide]	164	0.92
O=C(Cc1cc(F)cc(F)c1)Nn1nc(N2CCSCC2)c2ccccc2c1=O [Example 92, 2-(3,5-difluorophenyl)-N-[1-oxo-4-(thiomorpholin-4-yl)phthalazin-2(1H)-yl]acetamide]	187	0.618
O=C(Cc1ccc(Cl)cc1)Nn1nc(N2CCN(Cc3ccccc3)CC2)c2ccccc2c1=O [Example 101, N-[4-(4-benzylpiperazin-1-yl)-1-oxophthalazin-2(1H)-yl]-2-(4-chlorophenyl)acetamide]	112	3.49
CC(C)(C)OC(=O)Nc1ccc(Sc2nn(NC(=O)Cc3ccc(Cl)cc3)c(=O)c3ccccc23)cc1 [Example 103, tert-butyl{4-[(3-{[(4-chlorophenyl)acetyl]amino}-4-oxo-3,4-dihydrophthalazin-1-yl)sulfanyl]phenyl}carbamate]	76	–

Structure (SMILES)	Emax [%]	EC50 [µM]
O=C(Cc1ccc(Cl)cc1)Nn1nc(Cc2ccc(Cl)[n+]([O-])c2)c2ccccc2c1=O [Example 104, N-{4-[(6-chloro-1-oxidopyridin-3-yl)methyl]-1-oxophthalazin-2(1H)-yl}-2-(4-chlorophenyl)acetamide]	11.7	–
Nc1ccc(Sc2nn(NC(=O)Cc3ccc(Cl)cc3)c(=O)c3ccccc23)cc1 [Example 105, N-{4-[(4-aminophenyl)sulfanyl]-1-oxophthalazin-2(1H)-yl}-2-(4-chlorophenyl)acetamide]	120	0.889
CC(C)(C)OC(=O)Nc1ccc(S(=O)(=O)c2nn(NC(=O)Cc3ccc(Cl)cc3)c(=O)c3ccccc23)cc1 [Example 106, tert-butyl{4-[(3-{[(4-chlorophenyl)acetyl]amino}-4-oxo-3,4-dihydrophthalazin-1-yl)sulfonyl]phenyl}carbamate]	46.2	2.01
CN1CCN(c2nn(NC(=O)Cc3ccc(Cl)cc3)c(=O)c3ccccc23)CC1 [Example 107, 2-(4-chlorophenyl)-N-[4-(4-methylpiperazin-1-yl)-1-oxophthalazin-2(1H)-yl]acetamide]	24.3	–
CCOC(=O)C(C)c1nn(NC(=O)Cc2ccc(Cl)cc2)c(=O)c2ccccc12 (centres unmarked) [Example 109, ethyl 2-(3-{[(4-chlorophenyl)acetyl]amino}-4-oxo-3,4-dihydrophthalazin-1-yl)propanoate]	53.2	1.42
CC(C(=O)O)c1nn(NC(=O)Cc2ccc(Cl)cc2)c(=O)c2ccccc12 (centres unmarked) [Example 110, 2-(3-{[(4-chlorophenyl)acetyl]amino}-4-oxo-3,4-dihydrophthalazin-1-yl)propanoic acid]	2.26	–
O=C(Cc1ccccc1)Nn1nc(N2CCOCC2)c2ccccc2c1=O [Example 111, N-[4-(morpholin-4-yl)-1-oxophthalazin-2(1H)-yl]-2-phenylacetamide]	70.7	17.3
CC(C(=O)NC(C)(C)C)c1nn(NC(=O)Cc2ccc(Cl)cc2)c(=O)c2ccccc12 (centres unmarked) [Example 112, N-tert-butyl-2-(3-{[(4-chlorophenyl)acetyl]amino}-4-oxo-3,4-dihydrophthalazin-1-yl)propanamide]	17.1	–
CC(C(=O)NCC(C)(C)C)c1nn(NC(=O)Cc2ccc(Cl)cc2)c(=O)c2ccccc12 (centres unmarked) [Example 113, 2-(3-{[(4-chlorophenyl)acetyl]amino}-4-oxo-3,4-dihydrophthalazin-1-yl)-N-(2,2-dimethylpropyl)propanamide]	21.8	–
O=C(O)Cc1nn(NC(=O)Cc2ccc(Cl)cc2)c(=O)c2ccccc12 [Example 114, (3-{[(4-chlorophenyl)acetyl]amino}-4-oxo-3,4-dihydrophthalazin-1-yl)acetic acid]	3.72	–
Nc1ccc(S(=O)(=O)c2nn(NC(=O)Cc3ccc(Cl)cc3)c(=O)c3ccccc23)cc1 [Example 115, N-{4-[(4-aminophenyl)sulfonyl]-1-oxophthalazin-2(1H)-yl}-2-(4-chlorophenyl)acetamide]	42.2	–
CCOC(=O)Cc1nn(NC(=O)Cc2ccc(Cl)cc2)c(=O)c2ccccc12 [Example 116, ethyl(3-{[(4-chlorophenyl)acetyl]amino}-4-oxo-3,4-dihydrophthalazin-1-yl)acetate]	61.4	7.62
CCOC(=O)C(NC(=O)Cc1ccc(Cl)cc1)c1nn(NC(=O)Cc2ccc(Cl)cc2)c(=O)c2ccccc12 (centres unmarked) [Example 117, ethyl{[(4-chlorophenyl)acetyl]amino}(3-{[(4-chlorophenyl)acetyl]amino}-4-oxo-3,4-dihydrophthalazin-1-yl)acetate]	26.2	–
CC(C)(C)OC(=O)NCc1nn(NC(=O)Cc2ccc(C(F)(F)F)cc2)c(=O)c2ccccc12 [Example 118, tert-butyl{[4-oxo-3-({[4-(trifluoromethyl)phenyl]acetyl}amino)-3,4-dihydrophthalazin-1-yl]methyl}carbamate]	40.7	2.85
CC(C)(C)OC(=O)NCc1nn(NC(=O)C[C@@H]2CC[C@H]3C[C@@H]2C3(C)C)c(=O)c2ccccc12 [Example 119, tert-butyl{[3-({[(1S,2S,5S)-6,6-dimethylbicyclo[3.1.1]hept-2-yl]acetyl}amino)-4-oxo-3,4-dihydrophthalazin-1-yl]methyl}carbamate]	33.9	–
O=C(Cc1ccc(Cl)cc1)Nn1nc(CCO)c2ccccc2c1=O [Example 121, 2-(4-chlorophenyl)-N-[4-(2-hydroxyethyl)-1-oxophthalazin-2(1H)-yl]acetamide]	10.5	–
CC(C)(C)NC(=O)Cc1nn(NC(=O)Cc2ccc(Cl)cc2)c(=O)c2ccccc12 [Example 122, N-{4-[2-(tert-butylamino)-2-oxoethyl]-1-oxophthalazin-2(1H)-yl}-2-(4-chlorophenyl)acetamide]	14.2	–
